Experiments:
Format in all cases: in vivo
Chenopodium album = assay: Test Example 4: herbicidal effect by application to foliage (diluvial soil, plastic box); details: for herbicidal effect, O (Chenopodium album): application to foliage, 320 g/ha
Source text: (§1) 5 Herbicidal ratio of 90% or more (almost completely withered) 4 Herbicidal ratio of 70% or more and less than 90% 3 Herbicidal ratio of 40% or more and less than 70% 2 Herbicidal ratio of 20% or more and less than 40% 1 Herbicidal ratio of 5% or more and less than 20% 0 Herbicidal ratio of 5% or less (almost no effect) [Test Example 4] Herbicidal Effect Test by Application to Foliage Sterilized diluvial soil was placed in a plastic box having a length of 21 cm, a width of 13 cm, and a depth of 7 cm. Each of the seeds of Digitaria ciliaris, Setaria viridis, Echinochloa crus-galli var. crus-galli, Avena fatua, Alopecurus myosuroides, Lolium multiflorum Lam., Apera spica-venti., Abutilon theophrasti, Amaranthus retroflexus, Chenopodium album, Stellaria media, Galium spurium, Veronica persica, Zea mays, Glycine max, Oryza sativa, Triticum aestivum, Beta vulgaris ssp. vulgaris, and Brassica campestris L. was sowed in a spot-like manner and was covered with the soil of about 1.5 cm thick. Thereafter, the plants were grown in the greenhouse of 25° C. to 30° C. After the plants were grown for 14 days, the emulsion agent containing the compound of the present invention prepared in accordance with Formulation Example 2 was diluted with water so as to be a predetermined herbicide amount and the diluted compound was uniformly applied to a stem and leaf part with a small-size spray. Three weeks after the herbicide application, effects on each plant were investigated in accordance with the criteria of Test Example 1. A: Echinochloa oryzicola Vasing., B: Scirpus juncoides, C: Monochoria vaginalis, D: Leptochloa chinensis, E: Cyperus difformis, F: Digitaria ciliaris, G: Setaria viridis, H: Echinochloa crus-galli var. crus-galli, I: Avena fatua, J: Alopecurus myosuroides, K: Lolium multiflorum Lam., L: Apera spica-venti., M: Abutilon theophrasti, N: Amaranthus retroflexus, O: Chenopodium album, P: Stellaria media, Q: Galium spurium, R: Veronica persica, a: transplanted Oryza sativa, b: directly sowed Oryza sativa, c: Zea mays, d: Glycine max, e: Triticum aestivum, f: Beta vulgaris ssp. vulgaris, and g: Brassica campestris L. The application herbicide amount (g/ha) means an amount that a concentration is adjusted so that, when an application amount is converted into per hectare (1 ha), the herbicide is applied by the number of grams (g) of the described value.

Stellaria media = assay: as above; details: application to foliage, 320 g/ha
Source text: as §1

Lolium multiflorum Lam. = assay: as above; details: for herbicidal effect, K (Lolium multiflorum Lam.): application to foliage, 320 g/ha
Source text: as §1

Apera spica-venti. = assay: as above; details: for herbicidal effect, L (Apera spica-venti.): application to foliage, 320 g/ha
Source text: as §1

Veronica persica = assay: as above; details: for herbicidal effect, R (Veronica persica): application to foliage, 320 g/ha
Source text: as §1

Avena fatua = assay: as above; details: for herbicidal effect, I (Avena fatua): application to foliage, 320 g/ha
Source text: as §1

Amaranthus retroflexus = assay: as above; details: application to foliage, 320 g/ha
Source text: as §1

[1] = system: Echinochloa crus-galli var. crus-galli; assay: as above; details: for herbicidal effect, H (Echinochloa crus-galli var. crus-galli): application to foliage, 320 g/ha
Source text: as §1

Digitaria ciliaris = assay: as above; details: for herbicidal effect, F (Digitaria ciliaris): application to foliage, 320 g/ha
Source text: as §1

Galium spurium = assay: as above; details: for herbicidal effect, Q (Galium spurium): application to foliage, 320 g/ha
Source text: as §1

Abutilon theophrasti = assay: as above; details: for herbicidal effect, M (Abutilon theophrasti): application to foliage, 320 g/ha
Source text: as §1

Setaria viridis = assay: as above; details: for herbicidal effect, G (Setaria viridis): application to foliage, 320 g/ha
Source text: as §1

Alopecurus myosuroides = assay: as above; details: for herbicidal effect, J (Alopecurus myosuroides): application to foliage, 320 g/ha
Source text: as §1

Zea mays = assay: Test Example 4: effect on crop by application to foliage (diluvial soil, plastic box); details: for effect on crop, b (Zea mays): application to foliage, 320 g/ha
Source text: as §1

Brassica campestris L. = assay: as above; details: for effect on crop, g (Brassica campestris L.): application to foliage, 320 g/ha
Source text: as §1

Triticum aestivum = assay: as above; details: for effect on crop, e (Triticum aestivum): application to foliage, 320 g/ha
Source text: as §1

[2] = system: Beta vulgaris ssp. vulgaris; assay: as above; details: for effect on crop, f (Beta vulgaris ssp. vulgaris): application to foliage, 320 g/ha
Source text: as §1

Glycine max = assay: as above; details: for effect on crop, c (Glycine max): application to foliage, 320 g/ha
Source text: as §1

[3] = system: directly sowed Oryza sativa; assay: as above; details: for effect on crop, d (directly sowed Oryza sativa): application to foliage, 320 g/ha
Source text: as §1

[4] = system: directly sowed Oryza sativa; assay: Test Example 3: effect on crop by application to foliage (Wagner pot, water depth 0.1-0.5 cm); details: Nineteenth Table; application to foliage; application herbicide amount 320 g/ha
Source text: (§2) 5 Herbicidal ratio of 90% or more (almost completely withered) 4 Herbicidal ratio of 70% or more and less than 90% 3 Herbicidal ratio of 40% or more and less than 70% 2 Herbicidal ratio of 20% or more and less than 40% 1 Herbicidal ratio of 5% or more and less than 20% 0 Herbicidal ratio of 5% or less (almost no effect) [Test Example 3] Herbicidal Effect Test by Application to Foliage After alluvial soil was placed into 1/10000 are of Wagner pot, water was poured and mixed to form a condition having a water depth of 0.1 cm to 0.5 cm. Seeds of Echinochloa crus-galli var. crus-galli, Leptochloa chinensis, Cyperus difformis, and Oryza sativa were sowed and the pot was placed in the greenhouse of 25° C. to 30° C. to grow the plants. After the plants were grown for 14 days, the emulsion agent containing the compound of the present invention prepared in accordance with Formulation Example 2 was diluted with water so as to be a predetermined herbicide amount and the diluted compound was uniformly applied to a stem and leaf part with a small-size spray. Three weeks after the herbicide application, effects on each plant were investigated in accordance with the criteria of Test Example 1. A: Echinochloa oryzicola Vasing., B: Scirpus juncoides, C: Monochoria vaginalis, D: Leptochloa chinensis, E: Cyperus difformis, F: Digitaria ciliaris, G: Setaria viridis, H: Echinochloa crus-galli var. crus-galli, I: Avena fatua, J: Alopecurus myosuroides, K: Lolium multiflorum Lam., L: Apera spica-venti., M: Abutilon theophrasti, N: Amaranthus retroflexus, O: Chenopodium album, P: Stellaria media, Q: Galium spurium, R: Veronica persica, a: transplanted Oryza sativa, b: directly sowed Oryza sativa, c: Zea mays, d: Glycine max, e: Triticum aestivum, f: Beta vulgaris ssp. vulgaris, and g: Brassica campestris L. The application herbicide amount (g/ha) means an amount that a concentration is adjusted so that, when an application amount is converted into per hectare (1 ha), the herbicide is applied by the number of grams (g) of the described value.

Cyperus difformis = assay: Test Example 3: herbicidal effect by application to foliage (Wagner pot, water depth 0.1-0.5 cm); details: Nineteenth Table; application to foliage; application herbicide amount 320 g/ha
Source text: as §2

[5] = system: Echinochloa crus-galli var. crus-galli; assay: as above; details: Nineteenth Table; application to foliage; application herbicide amount 320 g/ha
Source text: as §2

Leptochloa chinensis = assay: as above; details: Nineteenth Table; application to foliage; application herbicide amount 320 g/ha
Source text: as §2

[6] = Application herbicide amount 320 g/ha
[7] = Application herbicide amount 320 g/ha, effect on crop

Cc1nnc(NC(=O)c2ccc(C(F)(F)F)n3c(=O)n(C(C)C)nc23)o1 [6-005]
herbicidal effect, O (Chenopodium album) (Chenopodium album): 3 (Herbicidal ratio of 40% or more and less than 70%)
herbicidal effect, P (Stellaria media) (Stellaria media): 1 (Herbicidal ratio of 5% or more and less than 20%)
herbicidal effect, K (Lolium multiflorum Lam.) (Lolium multiflorum Lam.): 1 (Herbicidal ratio of 5% or more and less than 20%)
herbicidal effect, L (Apera spica-venti.) (Apera spica-venti.): 1 (Herbicidal ratio of 5% or more and less than 20%)
herbicidal effect, R (Veronica persica) (Veronica persica): 1 (Herbicidal ratio of 5% or more and less than 20%)
herbicidal effect, I (Avena fatua) (Avena fatua): 0 (Herbicidal ratio of 5% or less (almost no effect))
herbicidal effect, N (Amaranthus retroflexus) (Amaranthus retroflexus): 3 (Herbicidal ratio of 40% or more and less than 70%)
herbicidal effect, H (Echinochloa crus-galli var. crus-galli) [1]: 3 (Herbicidal ratio of 40% or more and less than 70%)
herbicidal effect, F (Digitaria ciliaris) (Digitaria ciliaris): 3 (Herbicidal ratio of 40% or more and less than 70%)
herbicidal effect, Q (Galium spurium) (Galium spurium): 1 (Herbicidal ratio of 5% or more and less than 20%)
herbicidal effect, M (Abutilon theophrasti) (Abutilon theophrasti): 4 (Herbicidal ratio of 70% or more and less than 90%)
herbicidal effect, G (Setaria viridis) (Setaria viridis): 1 (Herbicidal ratio of 5% or more and less than 20%)
herbicidal effect, J (Alopecurus myosuroides) (Alopecurus myosuroides): 1 (Herbicidal ratio of 5% or more and less than 20%)
effect on crop, b (Zea mays) (Zea mays): 0 (Herbicidal ratio of 5% or less (almost no effect))
effect on crop, g (Brassica campestris L.) (Brassica campestris L.): 0 (Herbicidal ratio of 5% or less (almost no effect))
effect on crop, e (Triticum aestivum) (Triticum aestivum): 0 (Herbicidal ratio of 5% or less (almost no effect))
effect on crop, f (Beta vulgaris ssp. vulgaris) [2]: 1 (Herbicidal ratio of 5% or more and less than 20%)
effect on crop, c (Glycine max) (Glycine max): 0 (Herbicidal ratio of 5% or less (almost no effect))
effect on crop, d (directly sowed Oryza sativa) [3]: 0 (Herbicidal ratio of 5% or less (almost no effect))

Cc1nnc(NC(=O)c2ccc(C(F)(F)F)n3c(=O)n(C)nc23)o1 [6-001]
herbicidal effect, O (Chenopodium album) (Chenopodium album): 4 (Herbicidal ratio of 70% or more and less than 90%)
herbicidal effect, P (Stellaria media) (Stellaria media): 4 (Herbicidal ratio of 70% or more and less than 90%)
herbicidal effect, K (Lolium multiflorum Lam.) (Lolium multiflorum Lam.): 0 (Herbicidal ratio of 5% or less (almost no effect))
herbicidal effect, L (Apera spica-venti.) (Apera spica-venti.): 0 (Herbicidal ratio of 5% or less (almost no effect))
herbicidal effect, R (Veronica persica) (Veronica persica): 2 (Herbicidal ratio of 20% or more and less than 40%)
herbicidal effect, I (Avena fatua) (Avena fatua): 0 (Herbicidal ratio of 5% or less (almost no effect))
herbicidal effect, N (Amaranthus retroflexus) (Amaranthus retroflexus): 3 (Herbicidal ratio of 40% or more and less than 70%)
herbicidal effect, H (Echinochloa crus-galli var. crus-galli) [1]: 1 (Herbicidal ratio of 5% or more and less than 20%)
herbicidal effect, F (Digitaria ciliaris) (Digitaria ciliaris): 1 (Herbicidal ratio of 5% or more and less than 20%)
herbicidal effect, Q (Galium spurium) (Galium spurium): 2 (Herbicidal ratio of 20% or more and less than 40%)
herbicidal effect, M (Abutilon theophrasti) (Abutilon theophrasti): 3 (Herbicidal ratio of 40% or more and less than 70%)
herbicidal effect, G (Setaria viridis) (Setaria viridis): 2 (Herbicidal ratio of 20% or more and less than 40%)
herbicidal effect, J (Alopecurus myosuroides) (Alopecurus myosuroides): 0 (Herbicidal ratio of 5% or less (almost no effect))
effect on crop, b (Zea mays) (Zea mays): 0 (Herbicidal ratio of 5% or less (almost no effect))
effect on crop, g (Brassica campestris L.) (Brassica campestris L.): 0 (Herbicidal ratio of 5% or less (almost no effect))
effect on crop, e (Triticum aestivum) (Triticum aestivum): 0 (Herbicidal ratio of 5% or less (almost no effect))
effect on crop, f (Beta vulgaris ssp. vulgaris) [2]: 3 (Herbicidal ratio of 40% or more and less than 70%)
effect on crop, c (Glycine max) (Glycine max): 0 (Herbicidal ratio of 5% or less (almost no effect))
effect on crop, d (directly sowed Oryza sativa) [3]: 0 (Herbicidal ratio of 5% or less (almost no effect))

CON=Cc1nnc2c(C(=O)Nc3nnc(C)o3)ccc(C(F)(F)F)n12 [1-072]
b (effect on crop grade) [4]: 0 (Herbicidal ratio of 5% or less (almost no effect))
O (Chenopodium album; [6]): 4 (Herbicidal ratio of 70% or more and less than 90%)
K (Lolium multiflorum Lam.; [6]): 0 (Herbicidal ratio of 5% or less (almost no effect))
L (Apera spica-venti.; [6]): 0 (Herbicidal ratio of 5% or less (almost no effect))
R (Veronica persica; [6]): 1 (Herbicidal ratio of 5% or more and less than 20%)
I (Avena fatua; [6]): 0 (Herbicidal ratio of 5% or less (almost no effect))
H [1, 6]: 3 (Herbicidal ratio of 40% or more and less than 70%)
F (Digitaria ciliaris; [6]): 0 (Herbicidal ratio of 5% or less (almost no effect))
Q (Galium spurium; [6]): 0 (Herbicidal ratio of 5% or less (almost no effect))
M (Abutilon theophrasti; [6]): 1 (Herbicidal ratio of 5% or more and less than 20%)
G (Setaria viridis; [6]): 0 (Herbicidal ratio of 5% or less (almost no effect))
J (Alopecurus myosuroides; [6]): 0 (Herbicidal ratio of 5% or less (almost no effect))
E (herbicidal effect grade) (Cyperus difformis): 0 (Herbicidal ratio of 5% or less (almost no effect))
H (herbicidal effect grade) [5]: 2 (Herbicidal ratio of 20% or more and less than 40%)
D (herbicidal effect grade) (Leptochloa chinensis): 1 (Herbicidal ratio of 5% or more and less than 20%)
b (Zea mays; [7]): 0 (Herbicidal ratio of 5% or less (almost no effect))
g (Brassica campestris L.; [7]): 0 (Herbicidal ratio of 5% or less (almost no effect))
e (Triticum aestivum; [7]): 0 (Herbicidal ratio of 5% or less (almost no effect))
f [2, 7]: 0 (Herbicidal ratio of 5% or less (almost no effect))
c (Glycine max; [7]): 0 (Herbicidal ratio of 5% or less (almost no effect))
d [3, 7]: 0 (Herbicidal ratio of 5% or less (almost no effect))
